Experimental data: article PMC5428333, “Novel protein acetyltransferase, Rv2170, modulates carbon and energy metabolism in Mycobacterium tuberculosis” (Scientific Reports, 2017)

Legend:
Rv2170 [1] = molecular target: T1, Rv2170 (Mycobacterium tuberculosis, UniProt O53504)
Rv2170 [2] = molecular target: T1, Rv2170; remark: listed apart in the source

T1 sequence (O53504 whole entry): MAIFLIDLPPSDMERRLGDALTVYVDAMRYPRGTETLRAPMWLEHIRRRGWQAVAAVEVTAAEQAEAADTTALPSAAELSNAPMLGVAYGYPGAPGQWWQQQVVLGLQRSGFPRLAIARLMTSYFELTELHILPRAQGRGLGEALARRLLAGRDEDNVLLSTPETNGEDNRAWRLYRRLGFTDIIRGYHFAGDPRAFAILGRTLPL

Compound	DTNB assay of free CoA at 412 nm; also 14C transfer to ICDH1 by SDS-PAGE and pho (Rv2170 [1])	14C transfer to ICDH1, SDS-PAGE and phosphorimaging (Rv2170 [2])
CC(=O)SCCNC(=O)CCNC(=O)[C@H](O)C(C)(C)COP(=O)(O)OP(=O)(O)OC[C@H]1O[C@@H](n2cnc3c(N)ncnc32)[C@H](O)[C@@H]1OP(=O)(O)O [acetyl-CoA]	sigmoidal response in kinetic analysis of Rv2170 when the concentration of acetyl-CoA was increased	–
CCC(=O)SCCNC(=O)CCNC(=O)[C@H](O)C(C)(C)COP(=O)(O)OP(=O)(O)OC[C@H]1O[C@@H](n2cnc3c(N)ncnc32)[C@H](O)[C@@H]1OP(=O)(O)O [propionyl-CoA]	–	Rv2170 is also capable of modifying ICDH1 with the succinyl-CoA and propionyl-CoA donors
